US20250171459A1, “2-METHYL-4',5'-DIHYDROSPIRO[PIPERIDINE-4,7'-THIENO[2,3-C]PYRAN] DERIVATIVES AS INHIBITORS OF APOL1 AND METHODS OF USING SAME” (Vertex Pharmaceuticals Incorporated, priority 2022, published 2025)

Molecular target: T1, APOL1 (Homo sapiens, UniProt O14791)
T1 sequence (O14791 1-398 S342G/I384M): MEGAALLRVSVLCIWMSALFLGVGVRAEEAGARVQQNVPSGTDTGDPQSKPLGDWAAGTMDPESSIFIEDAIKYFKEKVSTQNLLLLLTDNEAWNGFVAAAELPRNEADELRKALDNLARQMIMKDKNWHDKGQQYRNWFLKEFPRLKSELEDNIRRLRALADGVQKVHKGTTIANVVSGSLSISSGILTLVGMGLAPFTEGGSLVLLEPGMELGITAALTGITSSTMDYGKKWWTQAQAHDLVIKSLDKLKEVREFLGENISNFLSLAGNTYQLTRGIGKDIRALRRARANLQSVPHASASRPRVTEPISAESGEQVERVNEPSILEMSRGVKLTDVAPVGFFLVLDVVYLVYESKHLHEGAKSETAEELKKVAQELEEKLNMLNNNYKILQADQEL
Experiment: MultiTox-Fluor Multiplex Cytotoxicity Assay in tet-inducible APOL1 T-REx-HEK293 cells (cell rescue, ratio of dead to live cells)
Type: cell-based
Details: tet-inducible transgenic APOL1 T-REx-HEK293 cell lines, 50 ng/mL tet, 24 hours; read-out: IP50 (i.e., IC50 for cell proliferation)
Excerpt: The MultiTox-Fluor Multiplex Cytotoxicity Assay is a single-reagent-addition, homogeneous, fluorescence assay that measures the number of live and dead cells simultaneously in culture wells. The assay measures cell viability and cytotoxicity by detecting two distinct protease activities. […] The substrate enters intact cells, where it is cleaved to generate a fluorescent signal proportional to the number of living cells. […] A ratio of dead to live cells is used to normalize data.
The MultiTox reagent was added to each well and placed back in the incubator for an additional 30 minutes. The plate was read on the EnVision plate reader. A ratio of dead to live cells was used to normalize, and data was imported, analyzed, and fit using Genedata Screener (Basel, Switzerland) software. Data was normalized using percent of control, no tet (100% viability), and 50 ng/mL tet treated (0% viability), and fit using Smart Fit. The reagents, methods, and complete protocol for the MultiTox assay are described below.
Cells were washed with DPBS and then trypsinized to dissociate from the flask. Media was used to quench the trypsin, cells were then pelleted at 200 g and resuspended in fresh cell assay media (DMEM, 2% Tet-free FBS, 2 mM L-glutamine, 100 Units/mL penicillin-streptomycin). […] The plates were then incubated at room temperature for one hour.
Tetracycline is needed to induce APOL1 expression. 1 mg/mL tet stock in water was diluted to 250 ng/mL (5×) in cell assay media.
Compounds were dispensed at 200 nL in DMSO. The final top concentration was 10 μM with a 10 point 3-fold dilution in duplicate in the MultiTox assay.
20 μL was transferred from the 5× tet plate to the ARP and mixed, then 5 μL of 5× tet and the compounds were transferred to the cell plate and mixed using the Bravo. The cell plate was placed in the humidified 37° C. 5% CO2 incubator for 24 hours.
The MultiTox-Fluor Multiplex Cytotoxicity Assay was performed in accordance with the manufacturer's protocol. After cells were incubated with tet and compound for 24 hours, 25 μL of 1× MultiTox reagent was added to each well using the Multidrop dispenser; the plates were placed on a plate shaker (600 rpm) for 2 minutes, then centrifuged briefly and placed back in the 37° C. incubator for 30 minutes. The cell viability (excitation: 400 nm, emission: 486 nm) and cytotoxicity (excitation: 485 nm, emission: 535 nm) were read using the EnVision plate reader. A ratio of dead (cytotoxicity) to live (viability) cells was reported. Data was exported and analyzed in Genedata. Data was normalized using percent of control, no tet (100% viability), and 50 ng/mL tet treated (0% viability), and fit using Smart Fit settings in Genedata.

Row | Structure (SMILES) | IC50
1 | CCc1cc2c(s1)CCO[C@@]21CCN(Cc2cn(C3CN(S(=O)(=O)C4CC4)C3)nn2)[C@@H](C)C1 [Compound 5] | < 0.1 µM
2 | CCc1cc2c(s1)CCO[C@@]21CCN(Cc2cn(CCS(=O)(=O)NCCO)nn2)[C@@H](C)C1 [Compound 6, 2-[4-[[(2′S,4R)-2-ethyl-2′-methyl-spiro[6,7-dihydrothieno[3,2-c]pyran-4,4′-piperidine]-1′-yl]methyl]triazol-1-yl]-N-(2-hydroxyethyl)ethanesulfonamide] | < 0.1 µM
3 | CCc1cc2c(s1)CCO[C@@]21CCN(Cc2cn(CCS(=O)(=O)NCC(C)O)nn2)[C@@H](C)C1 (stereo partly drawn) [Compound 7, 2-[4-[[(2′S,4R)-2-ethyl-2′-methyl-spiro[6,7-dihydrothieno[3,2-c]pyran-4,4′-piperidine]-1′-yl]methyl]triazol-1-yl]-N-(2-hydroxypropyl)ethanesulfonamide] | < 0.1 µM
4 | CCc1cc2c(s1)CCO[C@@]21CCN(Cc2c[nH]nn2)[C@@H](C)C1 [Compound 8, (2′S,4R)-2-ethyl-2′-methyl-1′-(1H-triazol-4-ylmethyl)spiro[6,7-dihydrothieno[3,2-c]pyran-4,4′-piperidine]] | < 0.1 µM
5 | CCc1cc2c(s1)CCO[C@@]21CCN(Cc2cn(CCS(C)(=O)=O)nn2)[C@H](C)C1 [Compound 9, (2′R,4R)-2-ethyl-2′-methyl-1′-[[1-(2-methylsulfonylethyl)triazol-4-yl]methyl]spiro[6,7-dihydrothieno[3,2-c]pyran-4,4′-piperidine]] | 0.5 to 1 µM
6 | CCc1cc2c(s1)CCO[C@]21CCN(Cc2cn(CCS(C)(=O)=O)nn2)[C@H](C)C1 [Compound 10, (2′R,4S)-2-ethyl-2′-methyl-1′-[[1-(2-methylsulfonylethyl)triazol-4-yl]methyl]spiro[6,7-dihydrothieno[3,2-c]pyran-4,4′-piperidine]] | 0.5 to 1 µM
7 | CCc1cc2c(s1)CCO[C@@]21CCN(Cc2cn(CCS(C)(=O)=O)nn2)[C@@H](C)C1 [Compound 11, (2′S,4R)-2-ethyl-2′-methyl-1′-[[1-(2-methylsulfonylethyl)triazol-4-yl]methyl]spiro[6,7-dihydrothieno[3,2-c]pyran-4,4′-piperidine]] | < 0.1 µM
8 | CCc1cc2c(s1)CCO[C@@]21CCN(Cc2cn(CCS(=O)(=O)NC)nn2)[C@@H](C)C1 [Compound 12, 2-[4-[[(2′S)-2-ethyl-2′-methyl-spiro[6,7-dihydrothieno[3,2-c]pyran-4,4′-piperidine]-1′-yl]methyl]triazol-1-yl]-N-methyl-ethanesulfonamide] | < 0.1 µM
9 | CCc1cc2c(s1)CCO[C@@]21CCN(Cc2cn(CS(C)(=O)=O)nn2)[C@@H](C)C1 [Compound 13, (2′S)-2-ethyl-2′-methyl-1′-[[1-(methylsulfonylmethyl)triazol-4-yl]methyl]spiro[6,7-dihydrothieno[3,2-c]pyran-4,4′-piperidine]] | < 0.1 µM
10 | CCc1cc2c(s1)CCO[C@@]21CCN(Cc2cn(CS(=O)(=O)CC)nn2)[C@@H](C)C1 [Compound 14, (2′S)-2-ethyl-1′-[[1-(ethylsulfonylmethyl)triazol-4-yl]methyl]-2′-methyl-spiro[6,7-dihydrothieno[3,2-c]pyran-4,4′-piperidine]] | 0.1 to 0.5 µM
11 | CCc1cc2c(s1)CCO[C@@]21CCN(Cc2cn([C@@H]3CCN(C(=O)OC(C)(C)C)C3)nn2)[C@@H](C)C1 [Compound 15, tert-butyl (3R)-3-[4-[[(2′S,4R)-2-ethyl-2′-methyl-spiro[6,7-dihydrothieno[3,2-c]pyran-4,4′-piperidine]-1′-yl]methyl]triazol-1-yl]pyrrolidine-1-carboxylate] | 0.1 to 0.5 µM
12 | CCc1cc2c(s1)CCO[C@@]21CCN(Cc2cn(-c3cncc(O)c3)nn2)[C@@H](C)C1 [Compound 16, 5-[4-[[(2′S,4R)-2-ethyl-2′-methyl-spiro[6,7-dihydrothieno[3,2-c]pyran-4,4′-piperidine]-1′-yl]methyl]triazol-1-yl]pyridin-3-ol] | 0.1 to 0.5 µM
13 | CCc1cc2c(s1)CCO[C@@]21CCN(Cc2cn([C@H]3CCN(C(=O)OC(C)(C)C)C3)nn2)[C@@H](C)C1 [Compound 17] | < 0.1 µM
14 | CCc1cc2c(s1)CCO[C@@]21CCN(Cc2cn([C@H]3C[C@H](S(C)(=O)=O)C3)nn2)[C@@H](C)C1 [Compound 18] | < 0.1 µM
15 | CCc1cc2c(s1)CCO[C@@]21CCN(Cc2cn([C@H]3C[C@@H](S(C)(=O)=O)C3)nn2)[C@@H](C)C1 [Compound 19] | 0.1 to 0.5 µM
16 | CCc1cc2c(s1)CCO[C@@]21CCN(Cc2cn(C3CCN(S(C)(=O)=O)CC3)nn2)[C@@H](C)C1 [Compound 20] | 0.1 to 0.5 µM
17 | CCc1cc2c(s1)CCO[C@@]21CCN(Cc2cn(C3CN(C(=O)OC(C)(C)C)C3)nn2)[C@@H](C)C1 [Compound 21] | < 0.1 µM
18 | CCc1cc2c(s1)CCO[C@@]21CCN(Cc2cn(CCSC(F)(F)F)nn2)[C@@H](C)C1 [Compound 22] | < 0.1 µM
19 | CCc1cc2c(s1)CCO[C@@]21CCN(Cc2cn(CCSCCO)nn2)[C@@H](C)C1 [Compound 23] | < 0.1 µM
20 | CCc1cc2c(s1)CCO[C@@]21CCN(Cc2cn(CCSCC(C)(C)O)nn2)[C@@H](C)C1 [Compound 24] | < 0.1 µM

Row | Structure (SMILES) | IC50
21 | CCc1cc2c(s1)CCO[C@@]21CCN(Cc2cn(C3CC4(C3)CS(=O)(=O)C4)nn2)[C@@H](C)C1 [Compound 25] | < 0.1 µM
22 | CCc1cc2c(s1)CCO[C@@]21CCN(Cc2cn(CCS(=O)(=O)c3ccccc3)nn2)[C@@H](C)C1 [Compound 26] | < 0.1 µM
23 | CCc1cc2c(s1)CCO[C@@]21CCN(Cc2cn([C@H]3CCN(S(C)(=O)=O)C3)nn2)[C@@H](C)C1 [Compound 27] | < 0.1 µM
24 | CCc1cc2c(s1)CCO[C@@]21CCN(Cc2cn(C3CCCN(S(C)(=O)=O)C3)nn2)[C@@H](C)C1 (stereo partly shown) [Compound 28] | 0.1 to 0.5 µM
25 | CCc1cc2c(s1)CCO[C@@]21CCN(Cc2cn(C3CS(=O)(=O)C3)nn2)[C@@H](C)C1 [Compound 29] | < 0.1 µM
26 | CCc1cc2c(s1)CCO[C@@]21CCN(Cc2cn(C3CCN(S(C)(=O)=O)C3)nn2)[C@@H](C)C1 (stereo partly shown) [Compound 30] | 0.1 to 0.5 µM
27 | CCc1cc2c(s1)CCO[C@@]21CCN(Cc2cn(CCn3ccnc3)nn2)[C@@H](C)C1 [Compound 31] | 0.1 to 0.5 µM
28 | CCc1cc2c(s1)CCO[C@@]21CCN(Cc2cn(Cc3cnc(C)cn3)nn2)[C@@H](C)C1 [Compound 32] | < 0.1 µM
29 | CCc1cc2c(s1)CCO[C@@]21CCN(Cc2cn(CC3CCO3)nn2)[C@@H](C)C1 (stereo partly shown) [Compound 33] | < 0.1 µM
30 | CCc1cc2c(s1)CCO[C@@]21CCN(Cc2cn(Cc3cnco3)nn2)[C@@H](C)C1 [Compound 34] | < 0.1 µM
31 | CCc1cc2c(s1)CCO[C@@]21CCN(Cc2cn(Cc3cocn3)nn2)[C@@H](C)C1 [Compound 35] | 0.1 to 0.5 µM
32 | CCc1cc2c(s1)CCO[C@@]21CCN(Cc2cn(CCc3cn(C)cn3)nn2)[C@@H](C)C1 [Compound 36] | 0.1 to 0.5 µM
33 | CCc1cc2c(s1)CCO[C@@]21CCN(Cc2cn(CCC#N)nn2)[C@@H](C)C1 [Compound 37] | < 0.1 µM
34 | CCc1cc2c(s1)CCO[C@@]21CCN(Cc2cn(Cc3cnccn3)nn2)[C@@H](C)C1 [Compound 38] | 0.1 to 0.5 µM
35 | CCc1cc2c(s1)CCO[C@@]21CCN(Cc2cn(Cc3c(CO)cnc(C)c3O)nn2)[C@@H](C)C1 [Compound 39] | 0.1 to 0.5 µM
36 | CCc1cc2c(s1)CCO[C@@]21CCN(Cc2cn(Cc3ncc(C)o3)nn2)[C@@H](C)C1 [Compound 40] | 0.1 to 0.5 µM
37 | CCc1cc2c(s1)CCO[C@@]21CCN(Cc2cn(Cc3ccnnc3)nn2)[C@@H](C)C1 [Compound 41] | < 0.1 µM
38 | CCc1cc2c(s1)CCO[C@@]21CCN(Cc2cn(CCNC(=O)c3ccncc3)nn2)[C@@H](C)C1 [Compound 42] | < 0.1 µM
39 | CCc1cc2c(s1)CCO[C@@]21CCN(Cc2cn(CCc3cnccn3)nn2)[C@@H](C)C1 [Compound 43] | 0.1 to 0.5 µM
40 | CCc1cc2c(s1)CCO[C@@]21CCN(Cc2cn(Cc3cnn(C)c3C)nn2)[C@@H](C)C1 [Compound 44] | < 0.1 µM
